Assay results reported in patent EP0851766B1, “METHOD FOR ANALYZING THE IMMUNOS[…] OF ION CHANNEL BLOCKERS USING THE MINI-PIG” (MERCK & CO., INC., priority 1995, dated 1997).
Where two headings read alike, the source gives them in different places.

What was measured:
[1] = system: mixed lymphocyte reaction; experiment: Mixed lymphocyte reaction (pig); type: cell-based
Source text: Mini-swine was recently selected to validate the concept that blocking the voltage activated K+ channels (Kv1.3) is a target for immunomodulation.

[2] = system: pig mononuclear cells; experiment: In vitro PMA/ionomycin induced proliferation of mononuclear cells ([3H]thymidine incorporation); type: cell-based
[3] = system: mononuclear cells; experiment: Ex vivo PMA/ionomycin-induced proliferation of mononuclear cells after in vivo infusion; parameters: species or system Yucatan mini-pig; conditions: 25 µg in 30 ml of vehicle infused over 2.5 h
[4] = Blood pressure and heart rate during infusion; type: in vivo, Yucatan mini-pig; conditions: during infusion of 25 µg over 2.5 h
Description: A Yucatan mini-pig received 25 µg of margatoxin in 30 ml of vehicle (5% autologous serum in 1:1 saline to PBS solution) over 2.5 h. […] Margatoxin was undetectable in the plasma in 24 h. Plasma level of MgTX was determined in a competition binding assay, by its inhibition of ^125I-labeled MgTX binding to Kv1.3 channels present in isolated plasma membranes. […] Similar pharmokinetic study was performed six times, with good correlations between high plasma levels of margatoxin and the lower response to PMA/ION. Yucatan mini-pigs receiving vehicle had no significant fluctuation of responses to PMA/ION. Therefore, this ex vivo test provides an assessment of the in vivo biological effect of margatoxin and can also be used to study the immunosuppressant effects of other ion channel blockers.

[5] = system: mixed lymphocyte reaction; conditions: mouse; cited from earlier work
[6] = 25 µg infused over 2.5 h
[7] = system: mixed lymphocyte reaction; conditions: rat; cited from earlier work
[8] = system: mixed lymphocyte reaction; conditions: rabbit; cited from earlier work
[9] = system: mixed lymphocyte reaction; conditions: guinea pig; cited from earlier work
[10] = target: T1, Kv1.3 channels of the pig T cells (Sus scrofa, UniProt A0A5G2QN06); conditions: electrophysiological analyses, unpublished communication from Reid Leonard; cited from earlier work
T1 construct: endogenous in cells; host or cells: pig T cells
T1 sequence (A0A5G2QN06 1-588): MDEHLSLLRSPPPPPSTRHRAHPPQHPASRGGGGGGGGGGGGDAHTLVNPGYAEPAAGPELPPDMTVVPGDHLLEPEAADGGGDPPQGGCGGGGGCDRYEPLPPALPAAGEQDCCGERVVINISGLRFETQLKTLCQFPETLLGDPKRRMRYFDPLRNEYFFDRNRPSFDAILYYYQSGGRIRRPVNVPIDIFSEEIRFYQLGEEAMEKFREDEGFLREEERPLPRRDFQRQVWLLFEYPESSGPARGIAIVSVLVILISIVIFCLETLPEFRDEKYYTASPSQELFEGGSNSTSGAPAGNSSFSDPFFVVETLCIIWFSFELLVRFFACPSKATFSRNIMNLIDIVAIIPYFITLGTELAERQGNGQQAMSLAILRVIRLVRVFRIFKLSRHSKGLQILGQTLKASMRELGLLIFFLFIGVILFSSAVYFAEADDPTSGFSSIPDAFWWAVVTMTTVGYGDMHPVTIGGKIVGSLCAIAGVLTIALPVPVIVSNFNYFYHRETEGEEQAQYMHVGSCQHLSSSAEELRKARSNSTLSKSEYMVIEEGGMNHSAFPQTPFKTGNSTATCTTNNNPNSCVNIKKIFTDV

## Margatoxin
[1]
  inhibition of the mixed lymphocyte reaction: inhibit
[2]; pig mononuclear cells, in vitro
  PMA/ionomycin (ION) induced proliferation: equally inhibited
[2]; whole blood spiked with Margatoxin
  suppression of the proliferative response to PMA/ION: significant suppression
[3]
  Unresponsiveness to PMA/ION, duration sustained post-infusion: 4.5 h
  Unresponsiveness to PMA/ION, time of maximum: maximal at the end of infusion
[4]
  rise in blood pressure: no significant rise
  rise in heart rate: no significant rise
[5]
  inhibition of the mixed lymphocyte reaction: not inhibited
[6]; in 24 h
  Plasma level: undetectable
[6]; plasma
  half-life: about 2 h
[6]; read-out: Plasma level, peak, at the end of infusion
  Cmax: 0.6 nM
[6]; read-out: Plasma level, at 4.5 h post-infusion
  concentration: 0.1 nM
[7]
  inhibition of the mixed lymphocyte reaction: not inhibited
[8]
  inhibition of the mixed lymphocyte reaction: not inhibited
[9]
  inhibition of the mixed lymphocyte reaction: not inhibited
[10]
  block of the Kv1.3 channels: block
